{
  "source": "paper PMC11758220",
  "about": "“Identification of a Privileged Scaffold for Inhibition of Sterol Transport Proteins through the Synthesis and Ring Distortion of Diverse, Pseudo-Natural Products” (ACS Central Science, 2025)",
  "key": {"[1]": {"test_system": "panel of STPs", "test": "Screen against a broad panel of the STPs using FP and DSF assays", "format": "binding, human", "text": "Protein expression constructs\nHuman ASTER domains of Aster-A(359-547), -B(364-552) and -C(318-504) were subcloned into a pGEX-6p-2rbs vector, thus introducing the cloning artifact ‘GPLGS’.3 The pGEX-6P-1-GST-OSBP(377- […]\na gift from James H. Hurley (University of California).4 The pHIS_2His6_Thrombin_STARD4(2-205;C75S) plasmid was a gift from Young Jun Im (Chonnam National University).5 STARD5A was a gift from Nicola Burgess-Brown (Addgene plasmid #42392; http://n2t.net/addgene:42392; […]\nProtein expression and purification […]\nvectors including an N-terminal PreScission-cleavable glutathione S-transferase (GST)-tag were expressed in Escherichia coli (E. coli) OverExpress C41 in Terrific Broth (TB) medium for 16 h at 18 °C after the induction with 0.1 mM isopropyl β-D-1-thiogalactopyranoside (IPTG). Cells were harvested at 3500 × g for 15 minutes and lysed by sonication in buffer containing 50 mM HEPES pH 7.5, 300 mM NaCl, 10 %v/v glycerol, 5 mM dithiothreitol (DTT), 0.1 %v/v Triton X-100 and protease inhibitor mix HP plus (Serva). The lysate was purified by affinity chromatography on a GSTrap FF column (Cytiva) using an ÄKTA Start (Cytiva) in buffer containing 50 mM HEPES pH 7.5, 300 mM NaCl, 10 %v/v glycerol, 5 mM DTT and 0.01 %v/v Triton X-100. The GST-tag was cleaved overnight on the column at 4 °C. […]"}, "[2]": {"target": "T1, STARD3 (Homo sapiens, UniProt Q14849)", "T1 construct": "STARD3(216-444); made in house; host or cells: E. coli BL21(DE3)", "T1 sequence (Q14849 216-444)": "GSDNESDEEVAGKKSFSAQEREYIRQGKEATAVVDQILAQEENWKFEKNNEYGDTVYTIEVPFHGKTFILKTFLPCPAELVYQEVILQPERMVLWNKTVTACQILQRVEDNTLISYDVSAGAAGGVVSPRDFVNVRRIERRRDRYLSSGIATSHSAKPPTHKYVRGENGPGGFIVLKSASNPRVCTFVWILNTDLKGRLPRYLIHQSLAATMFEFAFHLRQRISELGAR", "design": "method as in Depta et al.[43]", "conditions": "data reproduced; ref Depta et al.[43]; read-out: STARD3 Kd,app (DSF); cited from earlier work"}},
  "data": [
    {"compound": "CC12CCC3CC1CCC21C(=Nc2ccc(N4CCNCC4)cc21)O3", "note": "(centres unmarked) [Compound 22]", "values": [
      {"measurement": "Activity against the panel of STPs (in words)", "setting": "[1]", "result": "lost almost all activity"}
    ]},
    {"compound": "CCN(CC)CCO[C@H]1CC[C@@]2(C)C(=CC[C@@H]3[C@@H]2CC[C@]2(C)C(=O)CC[C@@H]32)C1", "note": "[Compound U18666A, reference compound]", "values": [
      {"measurement": "Kd", "setting": "[2]", "result": "> 30", "unit": "µM"}
    ]}
  ]
}
